Measured values: patent US11129899B1, “Methotrexate derivatives and uses thereof” (S.S. Manufacturing Co., Ltd, priority 2021, dated 2021)

Key:
[1] = biological target: T1, Dihydrofolate reductase (DHFR) (Homo sapiens, UniProt P00374); test: Dihydrofolate reductase (DHFR) inhibitor assay (Sigma-Aldrich DHFR assay kit); assay type: biochemical
T1 construct: purchased Sigma-Aldrich
T1 sequence (P00374 1-187): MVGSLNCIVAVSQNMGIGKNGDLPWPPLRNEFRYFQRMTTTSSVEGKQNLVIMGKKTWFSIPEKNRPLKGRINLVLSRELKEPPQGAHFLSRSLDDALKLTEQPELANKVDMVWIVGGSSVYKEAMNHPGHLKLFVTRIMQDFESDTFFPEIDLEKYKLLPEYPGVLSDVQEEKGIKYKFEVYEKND
Description: According to the supplier protocol, the activity of DHFR reductase was measured at […], every 15 seconds for 2.5 minutes, with the Biochrom Anthos 2010 microplate reader (Biochrom Ltd., Cambourne, Cambridge, UK). The enzymatic activity was calculated by the following formula: […]

MCF-7 cells = test: cells; assay type: cell-based; conditions: Homo sapiens, MCF7, 24 h, read-out: IC50 (cytotoxicity)
Description: The human breast cancer cell line, MCF-7, was obtained from American Type Cell Collection (ATCC) (Rockville, Mo., U.S.A.). The cells were cultured to 70-80% confluence in Dulbecco's modified Eagle medium (DMEM) (Gibco, Grand Island, N.Y., U.S.A.) with 10% fetal bovine serum (FBS) (Gibco) at 37° C. and 5% CO2. MCF-7 cells were plated overnight in a 96-well plate (4,000 cells per well). […] Next, 10 μl/well of WST-1/ECS solution from the Quick Cell Proliferation Colorimetric Assay Kit (BioVision, Inc., Milptas, Calif., U.S.A.) was added, and the solution was incubated for 2 hours at 37° C. and 5% CO2. Absorbance was measured at 480 nm with the Biochrom Anthos 2010 microplate reader (Biochrom Ltd., Cambourne, Cambridge, UK). The half maximal inhibitory concentrations (IC50) were calculated from log-linear regression from the absorbance optical density (OD).

Lipid solubility in oil = assay type: physicochemical
Description: Embodied compound or Methrotrexate in DMSO (3 μg/μl) were dissolved in olive oil, canola oil and sunflower oil(Sigma-Aldrich (St. Louis, Mo., USA)) at 40° C. The suspended were vortexed and centrifuged at 3000 RPM, 10 mins periodically. Oil solvent volume was stepwise increased till completely soluble was observed and the soluble concentration were determined (Table 2). The solutions were left at 24° C. overnight and were centrifuged at 5000 RPM for 20 mins. Ten microliter of embodied compound in oils were added to 100 μl deionized (DI) water. The suspensions were vigorously vortex and left at room temperature.

Structure (SMILES): CC(C)CCC[C@@H](C)[C@H]1CC[C@H]2[C@@H]3CC=C4C[C@@H](OC(=O)NCCCCNCCCNC(=O)[C@H](CCC(=O)O)NC(=O)c5ccc(N(C)Cc6cnc7nc(N)nc(N)c7n6)cc5)CC[C@]4(C)[C@H]3CC[C@]12C [Embodied compound, (4S)-4-{[3-({4-[({[(1R,3aS,3bS,7S,9aR,9bS,11aR)-9a,11a-dimethyl-1-[(2R)-6-methylheptan-2-yl]-1H,2H,3H,3aH,3bH,4H,6H,7H,8H,9H,9aH,9bH,10H,11H,11aH-cyclopenta[a]phenanthren-7-yl]oxy}carbonyl)amino]butyl}amino)propyl]carbamoyl}-4-[(4-{[(2,4-diaminopteridin-6-yl)methyl](methyl)amino}phenyl)formamido]butanoic acid]
- Dihydrofolate reductase (DHFR) activity ([1]; inhibitor 5 mM [sic]): 1.261 Unit/mgP
- Dihydrofolate reductase (DHFR) activity ([1]; inhibitor 5 mM [sic], % of no inhibitor): 8.41%
- Dihydrofolate reductase (DHFR) activity ([1]; inhibitor 50 mM [sic]): 0.561 Unit/mgP
- Dihydrofolate reductase (DHFR) activity ([1]; inhibitor 50 mM [sic], % of no inhibitor): 3.74%
- Dihydrofolate reductase (DHFR) activity ([1]; inhibitor 500 mM [sic]): 0.561 Unit/mgP
- Dihydrofolate reductase (DHFR) activity ([1]; inhibitor 500 mM [sic], % of no inhibitor): 3.74%
- IC50 (MCF-7 cells): 60 µM
- Solubility in Oil (40° C.) (Lipid solubility in oil; Canola Oil): 81.3 mg/100 ml
- Solubility in Oil (40° C.) (Lipid solubility in oil; Olive Oil): 48.1 mg/100 ml
- Solubility in Oil (40° C.) (Lipid solubility in oil; Sunflower Oil): 103.6 mg/100 ml

Structure (SMILES): CN(Cc1cnc2nc(N)nc(N)c2n1)c1ccc(C(=O)N[C@@H](CCC(=O)O)C(=O)O)cc1 [MTX, (2S)-2-[(4-{[(2,4-diaminopteridin-6-yl)methyl](methyl)amino}phenyl)formamido]pentanedioic acid, reference compound]
- IC50 (MCF-7 cells): 3270 µM
- Solubility in Oil (40° C.) (Lipid solubility in oil; Canola Oil): less than 0.1 mg/100 ml
- Solubility in Oil (40° C.) (Lipid solubility in oil; Olive Oil): less than 0.1 mg/100 ml
- Solubility in Oil (40° C.) (Lipid solubility in oil; Sunflower Oil): less than 0.1 mg/100 ml
